This note sets out measurements from article PMC6792352, “Limited Chemical Structural Diversity Found to Modulate Thyroid Hormone Receptor in the Tox21 Chemical Library” (Environmental Health Perspectives, 2019).

The data set is described as follows: in vitro. The following applies: rat, gh3-tre-luc cells.

Molecules are shown by their SMILES. Counter-ions that a name gives are not always drawn.

For the setting “AC50 (uM) modified / 1000”, `COc1ccc(N)c([N+](=O)[O-])c1` [4-Methoxy-2-nitroaniline] displayed a CC50 at 24 h of over 90 µM. `CCN1C(=O)c2ccccc2C1Nc1ccc(OCCN2CCCCC2)cc1` (stereo not drawn) [Etomidoline] returned a CC50 at 24 h (AC50 (uM) modified / 1000) of over 50 µM. The compound `CCO/C=C1\N=C(c2ccccc2)OC1=O` [Oxazolone] gave a CC50 at 24 h (AC50 (uM) modified / 1000) of 64.5 µM. `O=C(Nc1ccccc1)c1ccccc1I` [Benodanil] yielded a CC50 at 24 h (AC50 (uM) modified / 1000, Tox21_110001=Tox21_300420, viability, 1 nM T3 present, 24 h) of over 90 µM.

As to `O=C(C(=O)c1ccc(Br)cc1)c1ccc(Br)cc1` [4,4'-Dibromobenzil], the CC50 at 24 h (AC50 (uM) modified / 1000) was over 30 µM.

Under “AC50 (uM) modified / 1000”, `C[C@H]1C[C@H]2[C@@H]3CCC4=CC(=O)C=C[C@]4(C)[C@H]3C(=O)C[C@]2(C)[C@@]1(O)C(=O)CO` [Meprednisone] returned a CC50 at 24 h of over 50 µM. Under “AC50 (uM) modified / 1000”, `Nc1ccc(C=Cc2ccc(N)cc2S(=O)(=O)O)c(S(=O)(=O)O)c1` [4,4'-Diamino-2,2'-stilbenedisulfonic acid] came in with a CC50 at 24 h of over 50 µM. Take `N#C/C(N)=C(/N)C#N` [Diaminomaleonitrile]: the CC50 at 24 h (AC50 (uM) modified / 1000, Tox21_110001=Tox21_200991, viability, 1 nM T3 present, 24 h) is over 90 µM.

`COC(=O)Cc1cccc2ccccc12` [Methyl 1-naphthaleneacetate] returned a CC50 at 24 h (AC50 (uM) modified / 1000) of over 90 µM. Still for that read-out and setting: the value for `C#CCN1CC(=O)N(COC(=O)C2C(C=C(C)C)C2(C)C)C1=O` (stereo not drawn) [Imiprothrin] was over 50 µM; that for `CC(C(O)c1ccc(O)cc1)N1CCC(Cc2ccccc2)CC1` (stereo not drawn) [Ifenprodil] was 19.6 µM. For the setting “AC50 (uM) modified / 1000”, `CC(=O)C(C)=O` [2,3-Butanedione] had a CC50 at 24 h of over 90 µM. `C=CCCCCCCCCC(=O)OCC` [Ethyl undec-10-enoate] yielded a CC50 at 24 h (AC50 (uM) modified / 1000) of over 90 µM.

In the case of `CCCCCCCCCCCCCC(=O)O` [Tetradecanoic acid], the CC50 at 24 h (AC50 (uM) modified / 1000) was over 90 µM. `Cc1c(F)c(N2CCNC(C)C2)cc2c1c(=O)c(C(=O)O)cn2C1CC1` (stereo not drawn) [Grepafloxacin hydrochloride] came in with a CC50 at 24 h (AC50 (uM) modified / 1000) of over 50 µM. Under “AC50 (uM) modified / 1000”, `CCCCC(CC)COC(=O)/C=C/c1ccc(OC)cc1` (stereo not drawn) [2-Ethylhexyl trans-4-methoxycinnamate] came in with a cytotoxic concentration (CC50) at 24 h of over 90 µM. Consider `O=C(CCc1ccc(O)cc1)c1c(O)cc(O)cc1O` [Phloretin], for which half-maximal cytotoxicity (AC50 (uM) modified / 1000) (CC50 at 24 h) was put at 61.2 µM. Same read-out and setting: the same measure for `CN1CCC(N(Cc2cccs2)c2ccccc2)CC1` [Thenalidine]: 27 µM; for `Cc1ccccc1C#N` [2-Tolunitrile]: over 90 µM. In turn, `OCC1CC=CCC1` (stereo not drawn) [Cyclohex-3-en-1-ylmethanol] displayed a CC50 at 24 h (AC50 (uM) modified / 1000) of over 90 µM.

Regarding `O=[N+]([O-])c1ccc(NCCO)c(OCCO)c1` [HC Yellow 4], the CC50 at 24 h (AC50 (uM) modified / 1000) was determined as 58.6 µM. Same read-out and setting: the value for `Clc1cnc(Oc2ccc(Oc3ncc(Cl)cc3Cl)cc2)c(Cl)c1` [1,4-Bis[2-(3,5-dichloropyridyloxy)]benzene] was over 60 µM; that for `O=C1c2ccccc2C(=O)C1(O)O` [Ninhydrin] was over 90 µM; that for `CC(=O)Nc1ccc(N)cc1` [4-Aminoacetanilide] was over 90 µM. `CCCCCCBr` [1-Bromohexane] returned a CC50 at 24 h (AC50 (uM) modified / 1000, Tox21_110001=Tox21_202719, viability, 1 nM T3 present, 24 h) of over 100 µM. Under “AC50 (uM) modified / 1000, Tox21_110001=Tox21_112051, viability, 1 nM T3 present, 24 h”, `C[C@H](N)[C@H](O)c1ccc(O)c(O)c1` [Levonordefrin] yielded a CC50 at 24 h of 22 µM. In turn, `CCCCC(CC)C(=O)OC(C)C` (stereo not drawn) [Propan-2-yl 2-ethylhexanoate] returned a CC50 at 24 h (AC50 (uM) modified / 1000) of over 90 µM. `CC(CNC1CCCCC1)OC(=O)c1ccccc1` (stereo not drawn) [Hexylcaine hydrochloride] gave a CC50 at 24 h (AC50 (uM) modified / 1000) of over 20 µM. On to `CC/C=C\CCOC(C)=O` [(3Z)-3-Hexenyl acetate], for which, for the setting “AC50 (uM) modified / 1000”, the 50% cytotoxic concentration (CC50) at 24 h was over 90 µM. In the case of `CCNc1cccc(C)c1` [N-Ethyl-3-methylaniline], for the setting “AC50 (uM) modified / 1000”, the CC50 at 24 h is over 90 µM. Still for that read-out and setting: the value for `CC[N+](C)(C)c1cccc(O)c1` [Edrophonium chloride] was over 20 µM; that for `CC(C)=CCC[C@@](C)(O)[C@H]1CC=C(C)CC1` [Bisabolol] was over 50 µM; that for `NC(=O)C1(N2CCCCC2)CCN(CCCC(=O)c2ccc(F)cc2)CC1` [Pipamperone dihydrochloride] was over 50 µM.

On to `COc1cc(NS(=O)(=O)c2ccc(N)cc2)ncn1` [Sulfamonomethoxine], for which the CC50 at 24 h (AC50 (uM) modified / 1000) was over 20 µM. Still for that read-out and setting: the same measure for `Cc1cnc(C2=NC(=O)C(C)(C(C)C)N2)c(C(=O)O)c1` (stereo not drawn) [Imazapic]: over 90 µM. Compound `COc1cc(OC)cc(OC)c1` [1,3,5-Trimethoxybenzene] showed a cytotoxic concentration (CC50) at 24 h (AC50 (uM) modified / 1000) of over 50 µM.

Take `CC(=O)N[C@@H](CC(C)C)C(=O)O` [Acetyl-L-leucine]: where the note is “AC50 (uM) modified / 1000”, the CC50 at 24 h was over 50 µM. In the case of `CSC(=O)c1c(C(F)F)nc(C(F)(F)F)c(C(=O)SC)c1CC(C)C` [Dithiopyr], the CC50 at 24 h (AC50 (uM) modified / 1000) was found to be 57.6 µM. Consider `Cc1ccc(O)c(N)c1` [2-Amino-4-methylphenol], for which half-maximal cytotoxicity (AC50 (uM) modified / 1000) (CC50 at 24 h) was put at 33.5 µM. For the compound `Sc1nc2ccccc2[nH]1` [2-Mercaptobenzimidazole], the CC50 at 24 h (AC50 (uM) modified / 1000, Tox21_110001=Tox21_201828, viability, 1 nM T3 present, 24 h) is over 90 µM. Take `O=C(c1ccccc1)C(O)c1ccccc1` (stereo not drawn) [Benzoin]: the cytotoxic concentration (CC50) at 24 h (AC50 (uM) modified / 1000) is over 90 µM. Still for that read-out and setting: the same measure for `O=[N+]([O-])c1cc(Cl)c(Cl)c(Cl)c1Cl` [2,3,4,5-Tetrachloronitrobenzene]: 89.5 µM. Consider `CC(CCO)CC(C)(C)C` (stereo not drawn) [3,5,5-Trimethyl-1-hexanol], for which the CC50 at 24 h (AC50 (uM) modified / 1000) is over 90 µM. `Oc1cccc(Cl)c1Cl` [2,3-Dichlorophenol] registered a CC50 at 24 h (AC50 (uM) modified / 1000, Tox21_110001=Tox21_200909, viability, 1 nM T3 present, 24 h) of over 90 µM. In the case of `COc1ccc(CN2CCN(C(c3ccc(F)cc3)c3ccc(F)cc3)CC2)c(OC)c1OC` [Lomerizine dihydrochloride], where the note is “AC50 (uM) modified / 1000”, the CC50 at 24 h came to 10.5 µM. For the compound `NC1(c2ccc(-c3nc4ccn5c(=O)[nH]nc5c4cc3-c3ccccc3)cc2)CCC1` [MK-2206], the CC50 at 24 h (AC50 (uM) modified / 1000) was found to be 16.8 µM. `Oc1ccc2[nH]cc(CCCCN3CC=C(c4ccccc4)CC3)c2c1` [Roxindole] gave a CC50 at 24 h (AC50 (uM) modified / 1000) of 7.71 µM.

In turn, `O=C(Nc1cccc(C2=NCCN2)c1)Nc1cccc(C2=NCCN2)c1` [Imidocarb dipropionate] gave a CC50 at 24 h (AC50 (uM) modified / 1000) of over 50 µM.

As for `CC(C)C[C@H]1C(=O)N2CCC[C@H]2[C@]2(O)O[C@](NC(=O)[C@@H]3C=C4c5cccc6[nH]c(Br)c(c56)C[C@H]4N(C)C3)(C(C)C)C(=O)N12` [Bromocriptine], for the setting “AC50 (uM) modified / 1000”, the CC50 at 24 h is over 50 µM. Take `CCC(C)(C)c1ccc(O)cc1` [4-(2-Methylbutan-2-yl)phenol]: the CC50 at 24 h (AC50 (uM) modified / 1000) was over 90 µM. On the same count and under the same terms, the same measure for `COC(=O)c1ccc(O)cc1` [Methylparaben]: over 90 µM; for `CC1(C)[C@@H](O[C@H]2O[C@H](C(=O)O)[C@@H](O)[C@H](O)[C@H]2O[C@@H]2O[C@H](C(=O)O)[C@@H](O)[C@H](O)[C@H]2O)CC[C@]2(C)[C@H]3C(=O)C=C4[C@@H]5C[C@@](C)(C(=O)O)CC[C@]5(C)CC[C@@]4(C)[C@]3(C)CC[C@@H]12` [Ammonium glycyrrhizinate trihydrate]: over 70 µM; for `O=C(O)Cc1ccccc1Nc1c(Cl)cccc1Cl` [Diclofenac sodium]: over 90 µM. `c1cc2c(c(NC3=NCCN3)c1)CCCC2` [Tramazoline tosylate] came in with a 50% cytotoxic concentration (CC50) at 24 h (AC50 (uM) modified / 1000) of over 50 µM. On the same count and under the same terms, the same measure for `COCC(=O)Nc1c(I)c(C(=O)NCC(O)CO)c(I)c(C(=O)N(C)CC(O)CO)c1I` (mixture of isomers) [Iopromide]: over 20 µM.

Regarding `CNC(=S)NC` [N,N'-Dimethylthiourea], for the setting “AC50 (uM) modified / 1000”, the cytotoxic concentration (CC50) at 24 h was over 90 µM.

In the case of `C=C1/C(=C\C=C2/CCC[C@]3(C)[C@@H]([C@H](C)CCCC(C)(C)O)CC[C@@H]23)C[C@@H](O)C[C@@H]1O` [Calcitriol], under “AC50 (uM) modified / 1000”, it took 20.1 µM to reach half-maximal cytotoxicity (CC50 at 24 h).
